Results published in ChEMBL document CHEMBL1132676, “Resolution of a CPzI precursor, synthesis and biological evaluation of (+) and (-)-N-Boc-CPzI: a further validation of the relationship between chemical solvolytic stability and cytotoxicity” (Bioorg Med Chem Lett, 1999).
pIC50: −log10 of the molar value.

Assays:
[1] = The compound was evaluated for the chemical solvolytic stability at a pH 3; type: physicochemical; conditions: buffer
L1210 = test: In vitro cytotoxicity against L1210 murine leukemia cell lines; type: functional, cell-based; conditions: Mus musculus

half-life [1] [h] | Compound | pIC50 (L1210) | T1/2 [1] [h]
 | Cc1n[nH]c2c1[C@@]13C[C@@H]1CN(C(=O)OC(C)(C)C)C3=CC2=O | 6.69 | 
 | Cc1c[nH]c2c1[C@@]13C[C@@H]1CN(C(=O)OC(C)(C)C)C3=CC2=O |  | 37
 | Cc1n[nH]c2c1[C@]13C[C@H]1CN(C(=O)OC(C)(C)C)C3=CC2=O | 6.03 | 
110 | Cc1n[nH]c2c1C13CC1CN(C(=O)OC(C)(C)C)C3=CC2=O (centres undefined) | 6.43 | 
133 | CC(C)(C)OC(=O)N1C[C@H]2C[C@@]23C1=CC(=O)c1ccccc13 | 7.10 | 

Compound | half-life [1] [h] | pIC50 (L1210) | T1/2 [1] [h]
COC(=O)c1cc2c([nH]1)C(=O)C=C1N(C(=O)OC(C)(C)C)C[C@H]3C[C@]123 | 177 | 8.22 | 
